Test results as given in ChEMBL document CHEMBL1154847, “Steroidal saponins from Chlorophytum orchidastrum” (J Nat Prod, 2010).

Tests used:
HCT-116 = test: Cytotoxicity against human HCT116 cells by MTT assay; type: functional, cell-based
HT-29 = test: Cytotoxicity against human HT-29 cells by MTT assay; type: functional, cell-based

Row | SMILES | IC50 (HCT-116) [µM] | IC50 (HT-29) [µM]
1 | C[C@H]1CC[C@@]2(OC1)O[C@H]1C[C@H]3[C@@H]4CC[C@H]5C[C@@H](O[C@@H]6[C@@H](O)[C@H](OC[C@H]7O[C@@H](O[C@@H]8[C@@H](O)[C@H](O[C@H]9[C@H](O)[C@@H](CO)O[C@@H](O[C@@H]%10[C@H](O)[C@@H](O[C@@H]%11O[C@@H](C)[C@H](O)[C@@H](O)[C@H]%11O)[C@H](O)O[C@@H]%10CO)[C@@H]9O[C@@H]9OC[C@H](O)[C@H](O)[C@H]9O)OC[C@H]8O)[C@H](O)[C@@H](O[C@@H]8O[C@H](CO[C@@H]9O[C@@H](CO)[C@H](O)[C@H]9O)[C@@H](O)[C@H](O)[C@H]8O)[C@@H]7O)O[C@H]6CO)CC[C@]5(C)[C@H]4CC[C@]3(C)[C@H]1[C@@H]2C [ORCHIDASTROSIDE C] | 1.35 | 3.6
2 | C[C@H]1CC[C@@]2(OC1)O[C@H]1C[C@H]3[C@@H]4CC[C@H]5C[C@@H](O[C@@H]6[C@@H](O)[C@H](OC[C@H]7O[C@@H](O[C@@H]8[C@@H](O)[C@H](O[C@H]9[C@H](O)[C@@H](CO)O[C@@H](O[C@@H]%10[C@H](O)[C@@H](O)[C@H](O)O[C@@H]%10CO)[C@@H]9O[C@@H]9O[C@H](CO)[C@H](O)[C@H](O)[C@H]9O)O[C@H](CO)[C@H]8O)[C@H](O)[C@@H](O[C@@H]8O[C@H](CO[C@@H]9O[C@@H](CO)[C@H](O)[C@H]9O)[C@@H](O)[C@H](O)[C@H]8O)[C@@H]7O)O[C@H]6CO)[C@H](O)C[C@]5(C)[C@H]4CC[C@]3(C)[C@H]1[C@@H]2C [ORCHIDASTROSIDE E] | 7 | 7
3 | C[C@H]1CC[C@@]2(OC1)O[C@H]1C[C@H]3[C@@H]4CC[C@H]5C[C@@H](O[C@@H]6[C@@H](O)[C@H](OC[C@H]7O[C@@H](O[C@@H]8[C@@H](O)[C@H](O[C@H]9[C@H](O)[C@@H](CO)O[C@@H](O[C@@H]%10[C@H](O)[C@@H](O)[C@H](O)O[C@@H]%10CO)[C@@H]9O[C@@H]9O[C@H](CO)[C@H](O)[C@H](O)[C@H]9O)O[C@H](CO)[C@H]8O)[C@H](O)[C@@H](O[C@@H]8OC[C@@H](O)[C@H](O)[C@H]8O)[C@@H]7O)O[C@H]6CO)[C@H](O)C[C@]5(C)[C@H]4CC[C@]3(C)[C@H]1[C@@H]2C [ORCHIDASTROSIDE F] | 2.12 | 8.87
